Measured values reported in PMC5883364 (Malaria Journal, 2018).
Entries after “also recorded” stand apart in the source; their conditions may differ. Like-named read-outs stand apart in the source and are kept apart here.

Assays:
[1] = system: P. falciparum Dd2 (chloroquine-resistant, mefloquine-resistant); assay: SYBR Green I assay, IC50, strain Dd2; assay type: cell-based, Plasmodium falciparum; details: for antiplasmodial activity of building blocks in words: tested separately, Dd2 and 3D7 (Additional file 1); for Resistance Index RIa = IC50 (Dd2)/IC50 (3D7): Dd2 vs 3D7
Protocol: (§1) Staging and parasitaemia were determined by light microscopy of Giemsa-stained thin blood smears. Anti-malarial activity was determined using the SYBR Green I assay, as previously described.

[2] = system: P. falciparum 3D7 (chloroquine and mefloquine sensitive); assay: SYBR Green I assay, IC50, strain 3D7; assay type: cell-based, Plasmodium falciparum
Protocol: as §1

[3] = system: P. falciparum IPC5202 (artemisinin-resistant, K13 R539T); assay: SYBR Green I assay, IC50, strain IPC5202; assay type: cell-based, Plasmodium falciparum; details: for Resistance Index RIb = IC50 (IPC5202)/IC50 (3D7): IPC5202 vs 3D7; for IC50: Plasmodium falciparum, read-out: P. falciparum IC50 ± SD, IPC5202, strain IPC5202
Protocol: as §1

[4] = system: P. falciparum IPC4912 (artemisinin-resistant, K13 I543T); assay: SYBR Green I assay, IC50, strain IPC4912; assay type: cell-based, Plasmodium falciparum; details: for Resistance Index RIc = IC50 (IPC4912)/IC50 (3D7): IPC4912 vs 3D7; for IC50: Plasmodium falciparum, read-out: P. falciparum IC50 ± SD, IPC4912
Protocol: Staging and parasitaemia were determined by light microscopy of Giemsa-stained thin blood smears. Anti-malarial activity was determined using the SYBR Green I assay, as previously described. Briefly, early ring stage parasites (> 80% of rings) were challenged with a 1:3 serial dilution of each compound, in concentrations ranging from 10,000–0.169 nM. Fluorescence intensity was measured with a multi-mode microplate reader (Triad, Dynex Technologies), with excitation and emission wavelengths of 485 and 535 nm, respectively, and analysed by nonlinear regression using GraphPad Prism to determine IC50 values.

[5] = system: HepG2-A16 (human hepatoma) cells; details: for Selectivity index LD50 (HepG2)/IC50 (3D7): HepG2 vs 3D7; for Selectivity index LD50 (HepG2)/IC50 (Dd2): HepG2 vs Dd2; for Selectivity index LD50 (HepG2)/IC50 (IPC5202): HepG2 vs IPC5202; for LD50 HepG2: human, 48 h
Protocol: (§2) Cytotoxicity was assessed on the mammalian cell lines HepG2-A16 (human hepatoma) and V79 (Chinese hamster lung), using a MTT based assay, as previously described. […] V79 and HepG2 cell lines were incubated for 24 and 48 h, respectively (media changed at 24 h intervals). Absorbance was read at 570 nm on a multi-mode microplate reader (Triad, Dynex Technologies), to produce a log dose-dependence curve. The LD50 value for each compound was estimated by non-linear interpolation of the dose-dependence curve (GraphPad Software).

[6] = system: V79 (Chinese hamster lung) cells; details: for LD50 V79: Chinese hamster, 24 h; for Selectivity index LD50 (V79)/IC50 (3D7): V79 vs 3D7; for Selectivity index LD50 (V79)/IC50 (Dd2): V79 vs Dd2; for Selectivity index LD50 (V79)/IC50 (IPC4912): V79 vs IPC4912; for Selectivity index LD50 (V79)/IC50 (IPC5202): V79 vs IPC5202
Protocol: as §2

[7] = Solubility remark in the IC50 table; assay type: physicochemical; parameters: key: ?: Low solubility; details: symbol printed in the IC50 cells
Source text: Supplement 12936_2018_2281_MOESM1_ESM.docx, table 1: Table 1: Antiplasmodial activity in vitro (IC50) against resistant and sensitive P. falciparum strains. | column: P. falciparum IC50 ± SD (nM)

Plasmodium berghei NK65 = assay: Peters' 4-day suppressive test in Swiss albino mice; assay type: in vivo; details: 50 mg/kg/day oral for 4 days; for inhibition in vivo at 50 mg/kg/day: Plasmodium berghei
Protocol: In vivo tests were performed following the Guidelines for Ethical Conduct in The Care and Use of Animals of the Federal University of Rio Grande do Norte—Brazil (CEUA/UFRN/46/2013). Evaluation of anti-malarial activity in vivo was carried out using the Peters’ 4-day suppressive test, with modifications, as previously described. Swiss albino mice were infected with Plasmodium berghei NK65 and randomly allocated to groups of five animals. Animals were treated with 50 mg/kg/day of each of the tested compounds (dissolved in PBS containing 1% DMSO), administrated orally, for four consecutive days. The control group was treated with a solution of PBS/1% DMSO. On days 5 (D5), 7 (D7) and 10 (D10) after parasite inoculation, tail blood smears were Giemsa-stained and examined microscopically to estimate parasitaemia. Acute toxicity testing was carried out to determine adverse effects due to compounds (including weight loss, hair appearance, skin wounds and behavioural changes), and recorded daily.

[8] = Plasmodium falciparum, DD2, strain Dd2, read-out: P. falciparum IC50 ± SD, Dd2
[9] = Plasmodium falciparum, 3D7, strain 3D7, read-out: P. falciparum IC50 ± SD, 3D7
[10] = Plasmodium falciparum, 3D7, read-out: P. falciparum IC50 ± SD, 3D7

Structure (SMILES) | IC50 [1, 8] | IC50 [2, 9] | Selectivity index LD50 (HepG2)/IC50 (3D7) [5] | Selectivity index LD50 (HepG2)/IC50 (Dd2) [5] | LD50 HepG2 [5] | LD50 V79 [6] | Selectivity index LD50 (V79)/IC50 (3D7) [6] | Selectivity index LD50 (V79)/IC50 (Dd2) [6] | Resistance Index RIa = IC50 (Dd2)/IC50 (3D7) [1] | further results
C[C@@H]1CC[C@H]2[C@@H](C)C(=O)O[C@@H]3O[C@@]4(C)CC[C@@H]1[C@]32OO4 [ART, artemisinin, reference compound] | 2.5 ± 0.1 nM | 4 ± 0.1 nM | 104844.6 | 168515.4 | 0.4 mM | > 0.4 mM | 104844.6 | 168515.4 |  | IC50 ([1]; strain Dd2, read-out: P. falciparum IC50 ± SD, Dd2): 2.47 ± 0.1 nM; IC50 ([2]; strain 3D7, read-out: P. falciparum IC50 ± SD, 3D7): 3.97 ± 0.08 nM; Resistance Index RIb = IC50 (IPC5202)/IC50 (3D7) [3]: 8.32; IC50 [3]: 33.3 ± 8 nM; Resistance Index RIc = IC50 (IPC4912)/IC50 (3D7) [4]: 3.32; IC50 [4]: 13.3 ± 2.2 nM; Selectivity index LD50 (HepG2)/IC50 (IPC4912) ([5]; HepG2 vs IPC4912): 31295.7; Selectivity index LD50 (HepG2)/IC50 (IPC5202) [5]: 12499.5; Selectivity index LD50 (V79)/IC50 (IPC4912) [6]: 31295.7; Selectivity index LD50 (V79)/IC50 (IPC5202) [6]: 12499.5
O=c1nn[nH]n1-c1ccccc1 [LC133, 1-phenyl-1H-tetrazol-5-one] | > 10000 nM | > 10000 nM |  |  | 1.0 mM | > 1 mM |  |  |  | antiplasmodial activity of building blocks in words [1]: devoid of antiplasmodial activity
C[C@H]1[C@H](OC(=O)CCC(=O)O)O[C@@H]2O[C@@]3(C)CC[C@H]4[C@H](C)CC[C@@H]1[C@@]24OO3 [ATN, artesunate, reference compound] | 4.6 ± 1.4 nM | 5.1 ± 0.1 nM |  |  |  |  |  |  | 0.9 | Resistance Index RIb = IC50 (IPC5202)/IC50 (3D7) [3]: 0.67; IC50 [3]: 3.4 ± 0.1 nM; Resistance Index RIc = IC50 (IPC4912)/IC50 (3D7) [4]: 0.76; IC50 [4]: 3.9 ± 1.2 nM
NCCCCNC1CCC2(CC1)OOC1(O2)C2CC3CC(C2)CC1C3 (centres unmarked) [MIS16] |  |  |  |  | 1.0 mM | > 1 mM |  |  |  | solubility remark (no IC50 obtained) [7]: ?
O=S1(=O)N=C(Cl)c2ccccc21 [LC60, 3-chloro-1,2-benzisothiazole-1,1-dioxide] | > 10000 nM | > 10000 nM |  |  | 1.0 mM | > 1 mM |  |  |  | 
CC(C)(C)OC(=O)NCCCCN [LC64, tert-butyl(4-aminobutyl)carbamate] | > 10000 nM | > 10000 nM |  |  | 1.0 mM | > 1 mM |  |  |  | 
c1ccc(-n2nnnc2OCC2CCC3(CC2)OOC2(O3)C3CC4CC(C3)CC2C4)cc1 (centres unmarked) [LC132] |  |  | 41322.3 | 37596.9 | 1.0 mM | > 1 mM | 41322.3 | 37596.9 | 1.1 | times less active than LC131 or LC136 ([1]; in vitro, strain not stated): up to 12; Resistance Index RIb = IC50 (IPC5202)/IC50 (3D7) [3]: 1.03; IC50 [3]: 25 ± 7.4 nM; Resistance Index RIc = IC50 (IPC4912)/IC50 (3D7) [4]: 0.81; IC50 [4]: 19.7 ± 3.4 nM; Selectivity index LD50 (HepG2)/IC50 (IPC5202) [5]: 40000.0; Selectivity index LD50 (V79)/IC50 (IPC4912) [6]: 50761.4; Selectivity index LD50 (V79)/IC50 (IPC5202) [6]: 40000.0; in vivo outcome against P. berghei in words (Plasmodium berghei NK65; followed to day 10): recrudescence also occurred on day 10; also recorded: allowed recrudescence on day 10; inhibition in vivo at 50 mg/kg/day (Plasmodium berghei NK65; 120 h, mice, day 5, vs control group, read-out: % inhibition of parasite growth, Day 5 (converted)): 100%; inhibition in vivo at 50 mg/kg/day (Plasmodium berghei NK65; 168 h, mice, day 7, vs control group, read-out: % inhibition of parasite growth, Day 7 (converted)): 100%; inhibition in vivo at 50 mg/kg/day (Plasmodium berghei NK65; 240 h, mice, day 10, vs control group, read-out: % inhibition of parasite growth, Day 10 (converted)): 94.5%; Mean parasitaemia ± SD, Day 5 (Plasmodium berghei NK65; mice, day 5): 0%; Mean parasitaemia ± SD, Day 7 (Plasmodium berghei NK65; mice, day 7): 0%; Mean parasitaemia ± SD, Day 10 (Plasmodium berghei NK65; mice, day 10): 0.31 ± 0.10%
NCC1CCC2(CC1)OOC1(O2)C2CC3CC(C2)CC1C3 (centres unmarked) [LC95] | 56.3 ± 1 nM | 29.6 ± 5.18 nM | 3441.7 | 1784.7 | 1.0 mM | > 1 mM | 3441.7 | 1784.7 |  | 
CCN(CC)CCCC(C)Nc1ccnc2cc(Cl)ccc12 (centres unmarked) [CQ, chloroquine, reference compound] |  |  |  |  |  |  |  |  |  | IC50 ([1]; Plasmodium falciparum, DD2, read-out: P. falciparum IC50 ± SD, Dd2, strain Dd2): 340 ± 20.7 nM; IC50 ([1]; read-out: P. falciparum IC50 ± SD, Dd2, strain Dd2): 340 ± 20.7 nM; IC50 [2, 10]: 15.8 ± 0.8 nM
c1ccc(N2N=NNC23OOC2(O3)C3CC4CC(C3)CC2C4)cc1 (centres unmarked) [LC28] | 1130 ± 188 nM | 3660 ± 1490 nM | 273.3 | 887.3 | 1.0 mM | > 1 mM | 273.3 | 887.3 | 0.3 | 
Cn1nnc(N)n1 [LC126II, 2-methyl-2H-tetrazole-5-amine] |  |  |  |  |  |  |  |  |  | IC50 ([1]; Plasmodium falciparum, DD2, read-out: P. falciparum IC50 ± SD, Dd2): > 10000 nM; antiplasmodial activity of building blocks in words [1]: devoid of antiplasmodial activity; IC50 [2, 10]: > 10000 nM
NCCCCNC(=O)C1CCC2(CC1)OOC1(O2)C2CC3CC(C2)CC1C3 (centres unmarked) [MIS15] |  |  |  |  | 1.0 mM | > 1 mM |  |  |  | solubility remark (no IC50 obtained) [7]: ?
O=C(Nc1nnn[nH]1)C1CCC2(CC1)OOC1(O2)C2CC3CC(C2)CC1C3 (centres unmarked) [LC142] | 107 ± 45.4 nM | 117 ± 33.2 nM | 8568.9 | 9354.5 | 1.0 mM | > 1 mM | 8568.9 | 9354.5 | 0.9 | 
